According to US20060240021A1, “Mammalian genes involved in rapamycin resistance and tumorgenesis: rapr7 genes” (priority 2002, published 2006):

System: N2a cells
Experiment: MTT proliferation assay, rapamycin mediated cell growth inhibition of N2a cells
Assay type: cell-based, mouse
Conditions: FIG. 7
From the text: FIG. 7 illustrates sensitivity of the N2a cell line to the growth inhibitory effect of rapamycin.
In a preferred embodiment, an MTT proliferation assay (see, e.g., van de Loosdrechet, et al., 1994, J. Immunol. Methods 174: 311-320; Ohno et al., 1991, J. Immunol. Methods 145:199-203; Ferrari et al., 1990, J. Immunol. Methods 131: 165-172; Alley et al., 1988, Cancer Res. 48: 589-601; Carmichael et al., 1987, Cancer Res. 47:936-942; Gerlier et al., 1986, J. Immunol. Methods 65:55-63; Mosmann, 1983, J. Immunological Methods 65:55-63) is used to screen for a candidate agent in conjunction with rapamycin to inhibit the growth of rapamycin resistant cells. The cells are treated with chosen concentrations of the candidate agent and rapamycin for 4 to 72 hours. The cells are then incubated with a suitable amount of 3-(4,5-dimethylthiazol-2-yl)-2,5-diphenyltetrazolium bromide (MTT) for 1-8 hours such that viable cells convert MTT into an intracellular deposit of insoluble formazan. After removing the excess MTT contained in the supernatant, a suitable MTT solvent, e.g., a DMSO solution, is added to dissolved the formazan. The concentration of […], which is proportional to the number of viable cells, is then measured by determining the optical density at […]. […]

CO[C@H]1C[C@@H]2CC[C@@H](C)[C@@](O)(O2)C(=O)C(=O)N2CCCC[C@H]2C(=O)O[C@H]([C@H](C)C[C@@H]2CC[C@@H](O)[C@H](OC)C2)CC(=O)[C@H](C)/C=C(\C)[C@@H](O)[C@@H](OC)C(=O)[C@H](C)C[C@H](C)/C=C/C=C/C=C/1C [rapamycin, 9,10,12,13,14,21,22,23,24,25,26,27,32,33,34,34a-hexadecahydro-9,27-dihydroxy-3-[2-(4-hydroxy-3-methoxycyclohexyl)-1-methylethyl]-10,21-dimethoxy-6,8,12,14,20,26-hexamethyl-23,27-epoxy-3H-pyrido[2,1-c][1,4]oxaazacyclohentricontine-1,5,11,28,29(4H,6H,31H)-pentone]
rapamycin concentration at which the growth of N2a cells is completely inhibited (N2a cell line): ≥ 1 µM | rapamycin concentration at which N2a cells are sensitive to cell growth inhibition (mouse neuroblastoma N2a cells, MTT assay): 10 nM
